The numbers were not newly measured in patent US20220192993A1, “DOSAGE FORMS AND METHODS OF PREPARATION AND USE THEREOF” (Willow Bark Brands, Inc., priority 2019, published 2022), which cites them from elsewhere.

For the data set, the system named is brain alpha wave activity. Particulars: reported effect, 'testing shows'.

Turning to `CCNC(=O)CC[C@H](N)C(=O)O` [L-Theanine], the “brain alpha wave activity” value is recorded as “L-Theanine increases”.
